≈ marks a conversion by molar mass, not a printed value. Calls of active or inactive are those of the source. The calls are words filed in the database; no cut-off is given here.
Key:
Escherichia coli = assay: Antibacterial activity against Escherichia coli NCIMB 9485 after 24 hrs by serial dilution method; assay type: functional; details: NCIMB 9485, 24 h
Staphylococcus aureus [1] = assay: Antibacterial activity against Staphylococcus aureus NCIMB 12702 after 24 hrs by serial dilution method; assay type: functional; details: for MIC50 / MIC80 / MIC90: Staphylococcus aureus, NCIMB 12702, 24 h
Pseudomonas aeruginosa = assay: Antibacterial activity against Pseudomonas aeruginosa ATCC 10145 after 24 hrs by serial dilution method; assay type: functional, organism-based
[2] = Toxicity in sixth development stage of Galleria mellonella larvae assessed as survival rate at 100 ug/ml after 24 hrs; assay type: organism-based; details: in vivo
[3] = Toxicity in sixth development stage of Galleria mellonella larvae assessed as survival rate at 10 ug/ml after 48 hrs; assay type: organism-based; details: in vivo
Galleria mellonella = assay: Toxicity in sixth development stage of Galleria mellonella larvae assessed as larvae pupation at 1 to 1000 ug/ml after 7 days relative to control; assay type: organism-based; details: in vivo, 168 h
[4] = Toxicity in sixth development stage of Galleria mellonella larvae assessed as survival rate at 1000 ug/ml after 48 hrs; assay type: organism-based; details: in vivo
[5] = Toxicity in sixth development stage of Galleria mellonella larvae assessed as survival rate at 1000 ug/ml after 24 hrs; assay type: organism-based; details: in vivo
[6] = Toxicity in sixth development stage of Galleria mellonella larvae assessed as survival rate at 1 ug/ml after 72 hrs; assay type: organism-based; details: in vivo
[7] = Toxicity in sixth development stage of Galleria mellonella larvae assessed as survival rate at 50 ug/ml after 72 hrs; assay type: organism-based; details: in vivo
[8] = Toxicity in sixth development stage of Galleria mellonella larvae assessed as survival rate at 10 ug/ml after 24 hrs; assay type: organism-based; details: in vivo
[9] = Toxicity in sixth development stage of Galleria mellonella larvae assessed as survival rate at 10 ug/ml after 72 hrs; assay type: organism-based; details: in vivo
[10] = Toxicity in sixth development stage of Galleria mellonella larvae assessed as survival rate at 1 ug/ml after 48 hrs; assay type: organism-based; details: in vivo
[11] = Toxicity in sixth development stage of Galleria mellonella larvae assessed as survival rate at 100 ug/ml after 48 hrs; assay type: organism-based; details: in vivo
[12] = Toxicity in sixth development stage of Galleria mellonella larvae assessed as survival rate at 1000 ug/ml after 72 hrs; assay type: organism-based; details: in vivo
[13] = Toxicity in sixth development stage of Galleria mellonella larvae assessed as survival rate at 1 ug/ml after 24 hrs; assay type: organism-based; details: in vivo
[14] = Toxicity in sixth development stage of Galleria mellonella larvae assessed as survival rate at 50 ug/ml after 24 hrs; assay type: organism-based; details: in vivo
[15] = Toxicity in sixth development stage of Galleria mellonella larvae assessed as survival rate at 50 ug/ml after 48 hrs; assay type: organism-based; details: in vivo
[16] = Toxicity in sixth development stage of Galleria mellonella larvae assessed as survival rate at 100 ug/ml after 72 hrs; assay type: organism-based; details: in vivo
Staphylococcus aureus [17] = assay: Antibacterial activity against methicillin-resistant Staphylococcus aureus after 24 hrs by serial dilution method; assay type: functional

CN[C@@H](CC(C)C)C(=O)N[C@H]1C(=O)N[C@@H](CC(N)=O)C(=O)N[C@H]2C(=O)N[C@H]3C(=O)N[C@H](C(=O)N[C@@H](C(=O)O)c4cc(O)cc(O)c4-c4cc3ccc4O)[C@H](O)c3ccc(c(Cl)c3)Oc3cc2cc(c3O[C@H]2O[C@@H](CO)[C@H](O)[C@@H](O)[C@@H]2O[C@@H]2C[C@@](C)(N)[C@@H](O)[C@@H](C)O2)Oc2ccc(cc2Cl)[C@H]1O
MIC50 (Escherichia coli): 1.58 µM (≈ 2.29 µg/mL)
MIC80 (Escherichia coli): 2.1 µM (≈ 3.04 µg/mL)
MIC90 (Escherichia coli): 4.21 µM (≈ 6.1 µg/mL)
MIC50 (Staphylococcus aureus [1]): 1.58 µM (≈ 2.29 µg/mL)
MIC80 (Staphylococcus aureus [1]): 3.16 µM (≈ 4.58 µg/mL)
MIC90 (Staphylococcus aureus [1]): 4.21 µM (≈ 6.1 µg/mL)

CCC1CN2CCC1C[C@@H]2[C@@H](Oc1nnc(O[C@@H](c2ccnc3ccc(OC)cc23)[C@H]2CC3CCN2CC3CC)c2ccccc12)c1ccnc2ccc(OC)cc12 (some centres not stated)
MIC90 (Escherichia coli): > 200 µM
MIC90 (Staphylococcus aureus [1]): 189 µM (≈ 147 µg/mL)
MIC (Pseudomonas aeruginosa): inactive

CCC1CN2CCC1CC2[C@@H](OC(=O)c1ccc(Cl)cc1)c1ccnc2ccc(OC)cc12 (some centres not stated)
MIC90 (Escherichia coli): > 200 µM
MIC90 (Staphylococcus aureus [1]): 79.4 µM (≈ 36.9 µg/mL)
MIC (Pseudomonas aeruginosa): inactive

C=C[C@H]1CN2CC[C@H]1C[C@H]2[C@@H](NC(=S)Nc1ccccc1)c1ccnc2ccc(OC)cc12
survival at 24 h [2]: 100%
survival at 48 h [3]: 100%
Activity (Galleria mellonella): Non-toxic
survival at 48 h [4]: 100%
survival at 24 h [5]: 100%
survival at 72 h [6]: 100%
MIC50 (Escherichia coli): 40.9 µM (≈ 18.8 µg/mL)
MIC90 (Escherichia coli): 81.8 µM (≈ 37.5 µg/mL)
survival at 72 h [7]: 100%
survival at 24 h [8]: 100%
survival at 72 h [9]: 100%
survival at 48 h [10]: 100%
survival at 48 h [11]: 100%
MIC50 (Staphylococcus aureus [1]): 54.6 µM (≈ 25 µg/mL)
MIC90 (Staphylococcus aureus [1]): 164 µM (≈ 75.1 µg/mL)
MIC (Pseudomonas aeruginosa): inactive
survival at 72 h [12]: 100%
survival at 24 h [13]: 100%
survival at 24 h [14]: 100%
survival at 48 h [15]: 100%
survival at 72 h [16]: 100%

CCN(CC)CCNC(=S)Nc1cc(C(F)(F)F)cc(C(F)(F)F)c1
survival at 24 h [2]: 100%
MIC50 (Staphylococcus aureus [17]): 13.5 µM (≈ 5.22 µg/mL)
MIC90 (Staphylococcus aureus [17]): 23.5 µM (≈ 9.11 µg/mL)
survival at 48 h [3]: 100%
Activity (Galleria mellonella): Non-toxic
survival at 48 h [4]: 100%
survival at 24 h [5]: 100%
survival at 72 h [6]: 100%
MIC50 (Escherichia coli): 96.9 µM (≈ 37.5 µg/mL)
MIC80 (Escherichia coli): 129 µM (≈ 50 µg/mL)
MIC90 (Escherichia coli): 194 µM (≈ 75.1 µg/mL)
survival at 72 h [7]: 100%
survival at 24 h [8]: 100%
survival at 72 h [9]: 100%
survival at 48 h [10]: 100%
survival at 48 h [11]: 100%
MIC50 (Staphylococcus aureus [1]): 96.9 µM (≈ 37.5 µg/mL)
MIC80 (Staphylococcus aureus [1]): 129 µM (≈ 50 µg/mL)
MIC90 (Staphylococcus aureus [1]): 194 µM (≈ 75.1 µg/mL)
MIC (Pseudomonas aeruginosa): inactive
survival at 72 h [12]: 100%
survival at 24 h [13]: 100%
survival at 24 h [14]: 100%
survival at 48 h [15]: 100%
survival at 72 h [16]: 100%

CCC1CN2CCC1CC2[C@@H](Oc1cc2ccccc2c2ccccc12)c1ccnc2ccc(OC)cc12 (some centres not stated)
MIC90 (Escherichia coli): > 200 µM
MIC90 (Staphylococcus aureus [1]): > 200 µM
MIC (Pseudomonas aeruginosa): inactive

CCC1CN2CCC1C[C@H]2[C@@H](Oc1ccc(O[C@@H](c2ccnc3ccc(OC)cc23)[C@@H]2CC3CCN2CC3CC)c2c1C(=O)c1ccccc1C2=O)c1ccnc2ccc(OC)cc12 (some centres not stated)
MIC90 (Escherichia coli): > 200 µM
MIC82 (Staphylococcus aureus [1]): 124.9 µM (≈ 107 µg/mL)
MIC (Pseudomonas aeruginosa): inactive

C=C[C@H]1CN2CC[C@H]1C[C@H]2[C@@H](N)c1ccnc2ccc(OC)cc12
MIC50 (Escherichia coli): > 309 µM
MIC90 (Escherichia coli): 309 µM (≈ 100 µg/mL)
MIC50 (Staphylococcus aureus [1]): > 309 µM
MIC90 (Staphylococcus aureus [1]): > 309 µM
MIC (Pseudomonas aeruginosa): inactive

C=C[C@H]1CN2CC[C@H]1C[C@H]2CNC(=S)Nc1cc(C(F)(F)F)cc(C(F)(F)F)c1
survival at 24 h [2]: 100%
MIC50 (Staphylococcus aureus [17]): 20.7 µM (≈ 9.07 µg/mL)
MIC90 (Staphylococcus aureus [17]): 31.4 µM (≈ 13.8 µg/mL)
survival at 48 h [3]: 100%
Activity (Galleria mellonella): Non-toxic
survival at 48 h [4]: 100%
survival at 24 h [5]: 100%
survival at 72 h [6]: 100%
MIC50 (Escherichia coli): 42.9 µM (≈ 18.8 µg/mL)
MIC80 (Escherichia coli): 85.8 µM (≈ 37.5 µg/mL)
MIC90 (Escherichia coli): 85.8 µM (≈ 37.5 µg/mL)
survival at 72 h [7]: 100%
survival at 24 h [8]: 100%
survival at 72 h [9]: 100%
survival at 48 h [10]: 100%
survival at 48 h [11]: 100%
MIC50 (Staphylococcus aureus [1]): 42.9 µM (≈ 18.8 µg/mL)
MIC80 (Staphylococcus aureus [1]): 85.8 µM (≈ 37.5 µg/mL)
MIC90 (Staphylococcus aureus [1]): 85.8 µM (≈ 37.5 µg/mL)
MIC (Pseudomonas aeruginosa): inactive
survival at 72 h [12]: 100%
survival at 24 h [13]: 100%
survival at 24 h [14]: 100%
survival at 48 h [15]: 100%
survival at 72 h [16]: 100%

C=CC1CN2CCC1CC2[C@@H](Oc1cc(C)c2ccccc2n1)c1ccnc2ccc(OC)cc12 (some centres not stated)
MIC90 (Escherichia coli): > 200 µM
MIC90 (Staphylococcus aureus [1]): 115 µM (≈ 53.5 µg/mL)
MIC (Pseudomonas aeruginosa): inactive

CCNC(=S)Nc1cc(C(F)(F)F)cc(C(F)(F)F)c1
MIC50 (Escherichia coli): 158 µM (≈ 50 µg/mL)
MIC90 (Escherichia coli): > 316 µM
MIC50 (Staphylococcus aureus [1]): > 316 µM
MIC90 (Staphylococcus aureus [1]): > 316 µM
MIC (Pseudomonas aeruginosa): inactive
